Measurements published in patent publication US10996215B2, “Methods for determining drug efficacy for the treatment of diffuse large B-cell lymphoma, multiple myeloma, and myeloid cancers” (CELGENE CORPORATION, priority 2013, dated 2021).

Assays:
[1] = tested on: HNT-34; assay: 4 d BrdU cell assay / tritiated thymidine, sensitivity; assay type: cell-based
Description: (§1) Sensitivity to lenalidomide treatment in a panel of myeloid cancer cell lines was evaluated by tritiated thymidine and/or BrdU assays.

[2] = tested on: MDS-L; assay: as above; assay type: cell-based
Description: as §1

[3] = tested on: ABC-DLBCL cell line; assay: Tandem Mass Tag proteomics, lenalidomide vs Compound A; assay type: cell-based; settings: ABC-DLBCL cell line; 10 uM; 24 h; vs DMSO
Excerpt: Cells were harvested and proteins were fractionated using a basic pH reverse gradient method. Fractionated samples were labeled using a Tandem Mass Tag method.

[4] = tested on: IFN pathway; assay: effect on IFN pathway (FIG. 13); assay type: cell-based
[5] = tested on: Aiolos, Ikaros, IRF4, Cereblon; assay: Western blot of Aiolos, Ikaros, IRF4, Cereblon in DLBCL cell lines; assay type: cell-based, human
Description: Immunoblots were probed with antibodies recognizing: Aiolos, Ikaros, Cereblon, IRF4, c-myc, CD44, EZH2, EBF 1, PU. 1, and β-actin. Signals were detected with a LI-COR imager
The following steps can be performed to harvest cells in preparation for Western Blot analysis. The steps are performed on ice and any centrifugation is performed in a 4° C. refrigerated centrifuge. RIPA lysis buffer (Pierce, cat #89900) is first prepared by adding […] proteinase inhibitors (Pierce, cat #78443) to 1 mL of RIPA buffer. Subsequently, cells are washed once in ice-cold phosphate buffered saline (PBS). The cells are then lysed with 0.25 mL RIPA lysis buffer. The PBMCs are placed on ice for 30 minutes and vortexed every 10 minutes. Lysates are frozen and stored at −80° C. prior to further processing.
Lysates are placed in a QIAshredder® tube (QIAGEN, cat #79656) and spun down 30 sec, top speed (13200 rpm) in an Eppendorf benchtop centrifuge (Model 5415 R). The lysate is then transferred to a 1.5 mL clear Eppendorf tube and spun down 10 min at top speed. The supernatent is collected without disturbing the cell debris pellet. The supernatent is dry ice frozen and stored at −80° C. prior to analysis.
The protein concentration in supernatent is measured using BCA assay and the expected protein yield is about 0.5-5 μg/μL, or 125-1250 μg total. Approximately ≥10 μg protein per lane is loaded for western blotting (IRF4, IKZF3, etc.) using antibodies against the human proteins.
Membranes are immunblotted with anti-Aiolos (Santa Cruz Biotechnology, Dallas, Tex.), anti-Ikaros (Millipore, Billerica, Mass.) and anti-Actin (Sigma, St. Louis, Mo.; or LI-COR Biosciences, Lincoln, Nebr.) and secondary antibodies (LI-COR Biosciences, Lincoln, Nebr.). The blots are analyzed on Odyssey imager (LI-COR Biosciences, Lincoln, Nebr.).

[6] = tested on: DLBCL cell lines (GCB and ABC); assay: tritiated thymidine incorporation proliferation assay; assay type: cell-based
Description: Cells were then cultured for 3 days at 37° C. Tritiated thymidine was applied to the cell culture for the final 6 hours and cells were then harvested onto filter plates. After the plates have dried, scintillation fluid was added to the plates and read on a Top-count reader.
The cells were then analyzed for proliferation using a ^3H-thymidine incorporation assay.
Proliferation was assessed through tritiated thymidine incorporation.

[7] = tested on: other myeloid cancer cell lines; assay: 4 d BrdU cell assay, sensitivity; assay type: cell-based; settings: other cell lines of the panel, predominantly insensitive
Description: as §1

[8] = tested on: CSNK1A1, Ikaros; assay: Western analysis of BMMC or PBMC of lenalidomide-treated AML patients; assay type: in vivo; settings: 50 mg daily
Description: 3-5 μg total protein from each sample was evaludated for CSNK1A1, Ikaros, and GAPDH expressions by western analysis.

[9] = tested on: CSNK1A1 (CK1α), Ikaros; assay: MG-132, MLN-4924 or Compound A pre-treatment, Western analysis in HNT-34 cells; assay type: cell-based; settings: 10 μM, 3 h or 6 h
[10] = tested on: AML cell line (HNT-34); assay: tandem-mass-tagged proteomics of global cellular protein levels; assay type: cell-based, human; settings: 10 micromolar
Description: (§2) Samples were subjected to multiplexed quantitative mass spectrometry analysis. In particular, cell lysate was prepared from the samples, and was subjected to tandem protein digestion using LysC and trypsin, peptide labeling with either Tandem Mass Tag 6-plex or 10-plex reagents, and peptide fractionation. Multiplexed quantitative mass spectrometry data were collected on an Orbitrap Fusion mass spectrometer operating in a MS3 mode using synchronous precursor selection for the MS2 to MS3 fragmentation. MS/MS data were searched against a Uniprot human database with both the forward and reverse sequences using the SEQUEST algorithm. Additional data processing steps included controlling peptide and protein level false discovery rates, assembling proteins from peptides, and protein quantification from peptides. Each drug-treated sample has 3 replicates, each DMSO sample has 4 replicates.
(§3) T is the statistic calculated for the t.test. P.value represents statistical significance for the test. Adj.P.value represents FDR multiple testing correction of the P.values in previous parameter. B log odds that the protein is differentially abundant between the conditions (compound vs control).

[11] = tested on: del(5q) MDS cell line (MDS-L); assay: as above; assay type: cell-based, human
Description: as §2, §3

SMILES: Nc1cccc2c1CN(C1CCC(=O)NC1=O)C2=O (stereo not shown) [lenalidomide, 3-(4-amino-1-oxo-1,3-dihydro-isoindol-2-yl)-piperidine-2,6-dione]
- EC50 ([1]; 96 h, HNT-34, 4 d BrdU): 600 nM
- sensitivity of HNT-34 cells ([1]; FIG. 22B): sensitive
- EC50 ([2]; 96 h, MDS-L, 4 d BrdU): 1500 nM
- sensitivity of MDS-L cells ([2]; FIG. 22B): sensitive
- effect on CSNK1A1 protein [3]: decreases
- IFIT1, IFIT3, DDX58, XAF1, IFIH1, and OAS3 protein expression ([4]; FIG. 13A): upregulates
- DDX58, IFI27, IFIT1, IFIT3, DDX58, and XAF1 gene expression ([4]; FIG. 13B): upregulates
- ISG15 and OAS3 gene expression ([4]; FIG. 13C): upregulates
- IRF changes ([4]; FIG. 13E): induces
- IFIT1 and IFIT3 protein expression ([4]; FIG. 13F): upregulates
- IKKE protein level ([4]; FIG. 13F): reduces
- TBK1 phosphorylation (TBK1-PO4) ([4]; FIG. 13F): upregulates
- levels of STAT or phosphorylated STAT ([4]; FIG. 13G): induces changes
- IRF4 levels ([5]; DLBCL cell lines, 1 μM or 10 μM, within 72 hours): reduce
- Aiolos levels ([5]; Karpas 422 (GCB) and TMD8 (ABC), 10 μM, 1, 6 or 12 hours, vs DMSO): decrease
- Aiolos and Ikaros levels ([5]; WSU-DLCL2 (GCB) and OCI-LY10 (ABC), 10 μM, 1, 6 or 12 hours, vs DMSO): decreasing
- CRBN levels ([5]; nine GCB and ABC DLBCL cell lines, 1 μM or 10 μM, 72 hours): remained constant
- Aiolos and Ikaros levels ([5]; nine GCB and ABC DLBCL cell lines, 1 μM or 10 μM, 72 hours, vs DMSO): decreasing
- sensitivity of ABC DLBCL cell lines [6]: sensitive
- sensitivity of GCB cell lines [6]: less sensitive
- EC50 [7]: > 10000 nM
- patients with both CSNK1A1 and Ikaros modulated (down-regulated) [8]: 4 of 5
- CSNK1A1 and Ikaros proteins levels [9]: decreased
- log2FC CSNK1A1 ([10]; 8 hours): −1.6
- log2FC IKZF1 ([10]; 8 hours): −2.1
- log2FC CALM1 ([10]; 24 hours): −1.1
- log2FC CCNA2 ([10]; 24 hours): −1.1
- log2FC CSNK1A1 ([10]; 24 hours): −1.4
- log2FC IKZF1 ([10]; 24 hours): −2.4
- log2FC SERP1NH1 ([10]; 24 hours): 1.1
- log2FC ZFP91 ([10]; 24 hours): −1.4
- log2FC ARHGAP18 ([10]; 72 hours): 1.0
- log2FC CASS4 ([10]; 72 hours): 1.0
- log2FC CORO1B ([10]; 72 hours): 1.4
- log2FC CSNK1A1 ([10]; 72 hours): −1.5
- log2FC DAB2 ([10]; 72 hours): 1.3
- log2FC HSPB1 ([10]; 72 hours): 1.5
- log2FC IKZF1 ([10]; 72 hours): −2.4
- log2FC ITM2C ([10]; 72 hours): −1.2
- log2FC PPFIBP1 ([10]; 72 hours): 1.2
- log2FC SERPINH1 ([10]; 72 hours): 1.7
- log2FC ZFP91 ([10]; 72 hours): −1.1
- log2FC CSNK1A1 ([11]; 10 micromolar, 8 hours): −1.6
- log2FC IKZF1 ([11]; 10 micromolar, 8 hours): −2.1
- log2FC CCNA2 ([11]; 10 micromolar, 24 hours): −1.1
- log2FC CSNK1A1 ([11]; 10 micromolar, 24 hours): −1.4
- log2FC IKZF1 ([11]; 10 micromolar, 24 hours): −2.4
- log2FC SERPINH1 ([11]; 10 micromolar, 24 hours): 1.1
- log2FC ZFP91 ([11]; 10 micromolar, 24 hours): −1.4
- log2FC ARHGAP18 ([11]; 10 micromolar, 72 hours): 1.0
- log2FC CASS4 ([11]; 10 micromolar, 72 hours): 1.0
- log2FC CORO1B ([11]; 10 micromolar, 72 hours): 1.4
- log2FC CSNK1A1 ([11]; 10 micromolar, 72 hours): −1.5
- log2FC CYTL1 ([11]; 10 micromolar, 72 hours): −1.2
- log2FC DAB2 ([11]; 10 micromolar, 72 hours): 1.3
- log2FC HSPB1 ([11]; 10 micromolar, 72 hours): 1.5
- log2FC IKZF1 ([11]; 10 micromolar, 72 hours): −2.4
- log2FC ITM2C ([11]; 10 micromolar, 72 hours): −1.2
- log2FC PPFIBP1 ([11]; 10 micromolar, 72 hours): 1.2
- log2FC SERP1NH1 ([11]; 10 micromolar, 72 hours): 1.7
- log2FC YEATS2 ([11]; 10 micromolar, 72 hours): 2.5
- log2FC ZFP91 ([11]; 10 micromolar, 72 hours): −1.1
- down-regulation of Ikaros ([11]; 72 hrs, most down-regulated protein): about 5 fold
- down-regulation of CSNK1A1 ([11]; 72 hrs, second most down-regulated protein): about 3 fold
